The values below come from patent US20200069644A1, “NOVEL USE OF A FORMYL PEPTIDE RECEPTOR 2/ LIPOXIN A4 RECEPTOR (FPR2/ALX) AGONIST FOR TREATMENT OF HEART FAILURE” (BRISTOL- MYERS SQUIBB COMPANY, priority 2017, published 2020).

A word on the EC50: it is the concentration needed to bring the measured effect to its halfway point.

The test system of data set [1] is myocardial infarction in mice. In words: Mouse permanent coronary artery occlusion, early infarct composition 3 days post MI. The format is in vivo. Conditions: 3 mg/kg PO QD. How it is done:
In order to understand early changes in the infarct extracellular matrix, collagen remodeling enzymes and their endogenous inhibitors, the effects of 3 mg/kg Compound 1 treatment on the myocardial infarct composition in mice were evaluated 3 days post myocardial infarction. Myocardial infarction was created by permanently ligating the left anterior descending artery with a surgical suture. Treatment (QD, PO; suspension vehicle or Compound 1 at 3 mg/kg) was initiated 24 hours after MI and were continued to 3 days post MI. On day 3, mice received a final dose of treatment and the hearts were removed 2 hours post treatment (i.e., 74 hours after MI) for histological analysis.

The test system of data set [2] is DOCA-challenged cardiac fibrosis in mice. The format is in vivo. How it is done:
In a second model of non-ischemic heart disease with hypertension, mice were subjected to uni-nephrectomy and challenged with deoxycorticosterone acetate (DOCA) and saline drinking water to stimulate cardiac hypertrophy and left ventricular fibrosis. Mice were administered DOCA using subcutaneously implanted pellets (50 mg). A separate group of mice were subjected to surgery via creation of subcutaneous pocket (surgical “sham” group); these mice served as control for pellet implantation surgery. Mice were treated with Compound 1 (1 mg/kg, QD) or dosing solution (QD, referred to as vehicle) 24 hours after surgery. Treatment with Compound 1 was given to mice for 3 weeks. At the end of treatment phase, hearts were removed from animals and evaluated for collagen levels/fibrosis by cross-sectional histology of the hearts.
Myocardial fibrosis was evaluated in the mouse with continuous DOCA challenge administered by subcutaneous release pellet. The model increases systemic blood pressure and tissue inflammation in target tissues such as the myocardium via agonism of the mineralocorticoid receptor by DOCA. It also involves surgical uni-nephrectomy and supplementation with saline in the drinking water to further drive disease pathology. This is a model of non-ischemic heart disease.
The effect of Compound 1 on cardiac fibrosis development in the DOCA-salt mouse model was evaluated histologically. […]

Data set [3] concerns Mouse peritoneal macrophages. The experiment in a line: Enhancement of phagocytosis of FITC zymosan. Conditions: Peritoneal macrophage; mouse peritoneal macrophages elicited with 1% Biogel; read-out: EC50, enhancement of phagocytosis of fluorescently labeled zymosan. In kind it is cell-based. Here is the method:
Enhancement of phagocytosis Macrophages were elicited to the peritoneum of five C57BL6 mice by peritoneal injection of 1 mL of 1% Biogel in PBS (−/−) 4 days prior to harvest. Peritoneal exudates are harvested, combined and then filtered to remove Biogel beads. First, through a 70 um cell strainer followed by successively filtering through two 40 um cell strainers. The exudate is diluted with 1×PBS (−/−) to 50 mL and centrifuged at 300×g for 10 minutes at 4° C. The cell pellet is gently resuspended in 20-30 mL 1×PBS(+/+) and cells are counted using the Nexelcom Cellometer counter. Cell concentration is adjusted to 1,250,000 cells/mL in 1×PBS (+/+). 100 μL (125 k) cells are placed into each well of a 96-well Costar 3904 plate. The plates are centrifuged at 150×g for 30 seconds to promote adherence. […] Fluorescence signal from non-ingested Zymosan particles is quenched with 150 uL ice-cold 1:15 diluted Trypan Blue solution for 2 minutes and then aspirated to remove. Lastly, the plate is read on a SpectraMAX Gemini EM fluorescence plate reader in 150 ul of 1:50 diluted Trypan Blue. Plate Reader Settings=Bottom Read: Excitation 493 nm: Emission 525 nm: Cutoff 515 nm: Automix Off: Calibrate On: PMT=Auto: Column Priority: Reads/Well=20. […]

The target in data set [4] is T1, Mouse FPR1 (Mus musculus, UniProt P33766).
T1 construct: expressed in transfected cells
T1 sequence (P33766 1-364): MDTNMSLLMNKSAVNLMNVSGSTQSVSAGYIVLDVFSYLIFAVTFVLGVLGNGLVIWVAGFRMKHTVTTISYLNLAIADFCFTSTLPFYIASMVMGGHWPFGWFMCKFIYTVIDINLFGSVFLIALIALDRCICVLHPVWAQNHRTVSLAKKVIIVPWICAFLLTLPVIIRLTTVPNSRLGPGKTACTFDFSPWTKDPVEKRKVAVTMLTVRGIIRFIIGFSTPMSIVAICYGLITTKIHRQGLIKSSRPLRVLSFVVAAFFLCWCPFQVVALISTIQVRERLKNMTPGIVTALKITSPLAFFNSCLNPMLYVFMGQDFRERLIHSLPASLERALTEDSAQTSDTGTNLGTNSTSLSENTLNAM
In words: cAMP inhibition, mouse FPR1/CHO-A12. The format is cell-based.

Data set [5] concerns the target T2, Rat FPR1 (Rattus norvegicus, UniProt D4A7Q2).
T2 construct: expressed in transfected cells; host or cells: CHO
T2 sequence (D4A7Q2 1-355): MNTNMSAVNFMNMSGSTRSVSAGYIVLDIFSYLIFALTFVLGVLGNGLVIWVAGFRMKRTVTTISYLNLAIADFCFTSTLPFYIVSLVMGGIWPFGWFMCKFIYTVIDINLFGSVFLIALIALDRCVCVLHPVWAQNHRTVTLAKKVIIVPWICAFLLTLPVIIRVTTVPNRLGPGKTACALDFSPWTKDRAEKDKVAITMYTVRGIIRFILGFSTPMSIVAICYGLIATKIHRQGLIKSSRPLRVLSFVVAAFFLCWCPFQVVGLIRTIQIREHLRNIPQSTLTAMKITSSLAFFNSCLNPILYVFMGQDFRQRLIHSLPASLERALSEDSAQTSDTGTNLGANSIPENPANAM
The experiment in a line: cAMP inhibition, rat FPR1 CHO cells. The format is cell-based.

“And” between values parts separate entries of the source, which are not always exact repeats. Identical values can stand only once.

`COc1cc(F)c([C@@H]2CNC(=O)[C@H]2NC(=O)Nc2ccccc2)c(F)c1` [Compound 1, 1-((3S,4R)-4-(2,6-difluoro-4-methoxyphenyl)-2-oxopyrrolidin-3-yl)-3-phenylurea]: the “MMP-2 in infarcted myocardium vs. vehicle” value in data set [1] was “trend towards less MMP-2”. The “TIMP-4 in infarcted tissue vs. vehicle” value in data set [1] is given as “No differences”. Besides, in data set [1], the “average infarct area vs. vehicle” value is “similar”. The “collagen content within the infarct, increase vs. vehicle” value in data set [1] (P<0.05) is 1.7 fold. Besides, the “reduction of left ventricular fibrosis vs. vehicle treatment group” value in data set [2] (1 mg/kg QD for 3 weeks, started 24 h after surgery, P<0.01) is reported as 50%. For the same molecule, the “tolerability during in-life phase” value in data set [2] (mouse, in vivo, 1 mg/kg) is “well tolerated”. Moreover, the concentration for a half-maximal effect (EC50) in data set [3] is 0.002 µM; in data set [4] it was ~0.384 µM and 0.384 µM; in data set [5], 0.72 µM.
